These results are taken from patent US20150011466A1, “APJ Receptor Compounds” (priority 2012, published 2015).

Where a SMILES comes first, the peptide text is derived from it. [ ]: non-standard residue; d: D form. The star is where a group is joined. Palmitoyl = CCCCCCCCCCCCCCCC(=O)*

A short description of data set [1]: Histimine (% vs. 48/40).
Data set [2] deals with T1, APJ receptor (Homo sapiens, UniProt P35414).
T1 construct: expressed in transfected cells; host or cells: Human TRex cells (doxycycline-inducible)
T1 sequence (P35414 1-380): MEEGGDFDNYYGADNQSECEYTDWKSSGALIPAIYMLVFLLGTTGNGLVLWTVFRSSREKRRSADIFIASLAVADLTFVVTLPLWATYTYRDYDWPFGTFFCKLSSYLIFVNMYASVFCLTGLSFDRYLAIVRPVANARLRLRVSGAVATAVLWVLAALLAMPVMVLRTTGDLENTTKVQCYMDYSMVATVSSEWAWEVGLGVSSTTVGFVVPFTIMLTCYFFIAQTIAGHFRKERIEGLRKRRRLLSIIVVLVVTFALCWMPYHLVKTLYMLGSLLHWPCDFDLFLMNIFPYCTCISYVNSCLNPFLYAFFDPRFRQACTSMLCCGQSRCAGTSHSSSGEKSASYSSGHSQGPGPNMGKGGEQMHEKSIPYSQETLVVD
The data set is described as follows: HTRF cAMP assay, inhibition of NKH477 stimulated cAMP in Human TRex cells expressing APJ upon doxycycline induction (APJ-hTREX). The note with it: for percent intrinsic activity at 0.3 µM: read-out: % IA (@ 300 nM). Format: cell-based. The text has this:
HTRF (homogeneous time resolved fluorescence) is a technology developed by Cisbio Bioassays based on TR-FRET (time-resolved fluorescence resonance energy transfer). Cisbio Bioassays has developed a wide selection of HTRF-based assays compatible with whole cells, thereby enabling functional assays to run under more physiological conditions. The IP-One assays are competitive immunoassays using cryptate-labeled anti-IP1 monoclonal antibody and d2-labeled IP1. IP1 is a relatively stable downstream metabolite of IP3, and accumulates in cells following Gq receptor activation.
cAMP kits based on a competitive immunoassay using cryptate-labeled anti-cAMP antibody and d2-labeled cAMP were used to assay the effects of APJ compounds of the present invention. […] Cells are treated with […] doxycycline and seeded in all white 96 well plates @ 40 k/well overnight.
(Time-resolved FRET reads energy transfer from a long-lived donor to a nearby acceptor.)

`CCCCCCCCCCCCCCCC(=O)N[C@H](C(=O)N[C@H](C(=O)N[C@@H](Cc1ccccc1)C(=O)N[C@@H](CCCNC(=N)N)C(=O)N[C@@H](CO)C(=O)N[C@@H](CO)C(=O)N[C@@H](CCC(=O)O)C(=O)N[C@H](CCCCN)C(=O)N[C@@H](CCCNC(=N)N)C(=O)N[C@@H](CCCNC(=N)N)C(=O)N[C@@H](CO)C(=O)N[C@@H](C)C(=O)N[C@@H](CC(=O)O)C(=O)N[C@@H](Cc1c[nH]cn1)C(=O)N[C@@H](Cc1ccccc1)C(=O)N[C@H](C(N)=O)[C@@H](C)CC)C(C)C)[C@@H](C)O` [Compound 17] (Palmitoyl-TVFRSSE[dK]RRSADHFI-NH2): the “Histimine (% vs. 48/40)” value in data set [1] is reported as 113%. In data set [2], the percent intrinsic activity at 0.3 µM was determined as 83%. One may read the EC50 as the concentration needed to bring the measured effect to its halfway point. On to `CCCCCCCCCCCCCCCC(=O)N[C@H](C(=O)N[C@H](C(=O)N[C@@H](CC(=O)O)C(=O)N[C@@H](CCCNC(=N)N)C(=O)N[C@@H](CO)C(=O)N[C@@H](CO)C(=O)N[C@@H](CCC(=O)O)C(=O)N[C@H](CCCCN)C(=O)N[C@@H](CCCNC(=N)N)C(=O)N[C@@H](CCCNC(=N)N)C(=O)N[C@@H](CO)C(=O)N[C@@H](C)C(=O)N[C@@H](CC(=O)O)C(=O)N[C@H](C(=O)N[C@@H](Cc1ccccc1)C(=O)N[C@H](C(N)=O)[C@@H](C)CC)[C@@H](C)CC)C(C)C)[C@@H](C)O` [Compound 35] (Palmitoyl-TVDRSSE[dK]RRSADIFI-NH2; C-terminus assumed), for which the “Histimine (% vs. 48/40)” value in data set [1] was determined as 4%. Besides, in data set [2], the EC50 amounted to 142 nM and the percent intrinsic activity at 0.3 µM is 70%. In addition, the Ranking result in data set [2] (class combining EC50 and % histamine) is “**** (EC50 101-500 nM and % histamine<35%)”. Turning to `CCCCCCCCCCCCCCCC(=O)N[C@H](C(=O)N[C@H](C(=O)N[C@@H](Cc1ccccc1)C(=O)N[C@@H](CCCNC(=N)N)C(=O)N[C@@H](CO)C(=O)N[C@@H](CO)C(=O)N[C@@H](CCC(=O)O)C(=O)N[C@H](CCCCN)C(=O)N[C@@H](CCCNC(=N)N)C(=O)N[C@@H](CCCNC(=N)N)C(=O)N[C@@H](CO)C(=O)N[C@@H](C)C(=O)N[C@@H](CC(=O)O)C(=O)N[C@H](C(=O)N[C@@H](Cc1ccccc1)C(=O)N[C@@H](CC(=O)O)C(N)=O)[C@@H](C)CC)C(C)C)[C@@H](C)O` [Compound 41] (Palmitoyl-TVFRSSE[dK]RRSADIFD-NH2), the “Histimine (% vs. 48/40)” value in data set [1] stood at 48%. The percent intrinsic activity at 0.3 µM in data set [2] stood at 60%. With `CCCCCCCCCCCCCCCC(=O)N[C@H](C(=O)N[C@H](C(=O)N[C@@H](Cc1ccccc1)C(=O)N[C@@H](CCCNC(=N)N)C(=O)N[C@@H](CO)C(=O)N[C@@H](CO)C(=O)N[C@@H](CCC(=O)O)C(=O)N[C@H](CCCCN)C(=O)N[C@@H](CCCNC(=N)N)C(=O)N[C@@H](CCCNC(=N)N)C(=O)N[C@@H](CO)C(=O)N[C@@H](C)C(=O)N[C@@H](CC(=O)O)C(=O)N[C@H](C(=O)N[C@@H](Cc1ccccc1)C(=O)N[C@@H](Cc1c[nH]cn1)C(N)=O)[C@@H](C)CC)C(C)C)[C@@H](C)O` [Compound 19] (Palmitoyl-TVFRSSE[dK]RRSADIFH-NH2), the “Histimine (% vs. 48/40)” value in data set [1] was 104%. In addition, the percent intrinsic activity at 0.3 µM in data set [2] came to 53%. Turning to `CCCCCCCCCCCCCCCC(=O)N[C@H](C(=O)N[C@H](C(=O)N[C@@H](Cc1ccccc1)C(=O)N[C@@H](CCCNC(=N)N)C(=O)N[C@@H](CO)C(=O)N[C@@H](CO)C(=O)N[C@@H](CCC(=O)O)C(=O)N[C@H](CCCCN)C(=O)N[C@@H](CCCNC(=N)N)C(=O)N[C@@H](CCCNC(=N)N)C(=O)N[C@@H](CO)C(=O)N[C@@H](Cc1c[nH]cn1)C(=O)N[C@@H](CC(=O)O)C(=O)N[C@H](C(=O)N[C@@H](Cc1ccccc1)C(=O)N[C@H](C(N)=O)[C@@H](C)CC)[C@@H](C)CC)C(C)C)[C@@H](C)O` [Compound 15] (Palmitoyl-TVFRSSE[dK]RRSHDIFI-NH2), in data set [1], the “Histimine (% vs. 48/40)” value is listed as 103%. Moreover, in data set [2], the percent intrinsic activity at 0.3 µM amounted to 77%.

`CCCCCCCCCCCCCCCC(=O)N[C@H](C(=O)N[C@H](C(=O)N[C@@H](Cc1ccccc1)C(=O)N[C@@H](CCCNC(=N)N)C(=O)N[C@@H](CO)C(=O)N[C@@H](CO)C(=O)N[C@@H](CCC(=O)O)C(=O)N[C@H](CCCCN)C(=O)N[C@@H](CCCNC(=N)N)C(=O)N[C@@H](CCCNC(=N)N)C(=O)N[C@@H](CO)C(=O)N[C@@H](C)C(=O)N[C@@H](CC(=O)O)C(=O)N[C@H](C(=O)NCC(=O)N[C@H](C(N)=O)[C@@H](C)CC)[C@@H](C)CC)C(C)C)[C@@H](C)O` [Compound 79] (Palmitoyl-TVFRSSE[dK]RRSADIGI-NH2): the “Histimine (% vs. 48/40)” value in data set [1] stood at 43%. In addition, in data set [2], the percent intrinsic activity at 0.3 µM is 39%. Take `CCCCCCCCCCCCCCCC(=O)N[C@H](C(=O)N[C@H](C(=O)N[C@@H](Cc1ccccc1)C(=O)N[C@@H](CCCNC(=N)N)C(=O)N[C@@H](CO)C(=O)N[C@@H](CO)C(=O)N[C@@H](CCC(=O)O)C(=O)N[C@H](CCCCN)C(=O)NCC(=O)N[C@@H](CCCNC(=N)N)C(=O)N[C@@H](CO)C(=O)N[C@@H](C)C(=O)N[C@@H](CC(=O)O)C(=O)N[C@H](C(=O)N[C@@H](Cc1ccccc1)C(=O)N[C@H](C(N)=O)[C@@H](C)CC)[C@@H](C)CC)C(C)C)[C@@H](C)O` [Compound 75] (Palmitoyl-TVFRSSE[dK]GRSADIFI-NH2): in data set [2], the percent intrinsic activity at 0.3 µM came to 57%. Still for that read-out and setting: the result for `CCCCCCCCCCCCCCCC(=O)N[C@H](C(=O)N[C@@H](Cc1c[nH]cn1)C(=O)N[C@@H](Cc1ccccc1)C(=O)N[C@@H](CCCNC(=N)N)C(=O)N[C@@H](CO)C(=O)N[C@@H](CO)C(=O)N[C@@H](CCC(=O)O)C(=O)N[C@H](CCCCN)C(=O)N[C@@H](CCCNC(=N)N)C(=O)N[C@@H](CCCNC(=N)N)C(=O)N[C@@H](CO)C(=O)N[C@@H](C)C(=O)N[C@@H](CC(=O)O)C(=O)N[C@H](C(=O)N[C@@H](Cc1ccccc1)C(=O)N[C@H](C(N)=O)[C@@H](C)CC)[C@@H](C)CC)[C@@H](C)O` [Compound 8] (Palmitoyl-THFRSSE[dK]RRSADIFI-NH2) reads 63%; that for `CCCCCCCCCCCCCCCC(=O)N[C@H](C(=O)N[C@H](C(=O)N[C@@H](Cc1ccccc1)C(=O)N[C@@H](CCC(N)=O)C(=O)N[C@@H](CO)C(=O)N[C@@H](CO)C(=O)N[C@@H](CCC(=O)O)C(=O)N[C@H](CCCCN)C(=O)N[C@@H](CCCNC(=N)N)C(=O)N[C@@H](CCCNC(=N)N)C(=O)N[C@@H](CO)C(=O)N[C@@H](C)C(=O)N[C@@H](CC(=O)O)C(=O)N[C@H](C(=O)N[C@@H](Cc1ccccc1)C(=O)N[C@H](C(N)=O)[C@@H](C)CC)[C@@H](C)CC)C(C)C)[C@@H](C)O` [Compound 22] (Palmitoyl-TVFQSSE[dK]RRSADIFI-NH2), 59%; that for `CCCCCCCCCCCCCCCC(=O)N[C@H](C(=O)N[C@H](C(=O)N[C@@H](Cc1ccccc1)C(=O)N[C@@H](CCCNC(=N)N)C(=O)N[C@@H](CO)C(=O)N[C@@H](CC(=O)O)C(=O)N[C@@H](CCC(=O)O)C(=O)N[C@H](CCCCN)C(=O)N[C@@H](CCCNC(=N)N)C(=O)N[C@@H](CCCNC(=N)N)C(=O)N[C@@H](CO)C(=O)N[C@@H](C)C(=O)N[C@@H](CC(=O)O)C(=O)N[C@H](C(=O)N[C@@H](Cc1ccccc1)C(=O)N[C@H](C(N)=O)[C@@H](C)CC)[C@@H](C)CC)C(C)C)[C@@H](C)O` [Compound 37] (Palmitoyl-TVFRSDE[dK]RRSADIFI-NH2), 50%.

In the case of `CCCCCCCCCCCCCCCC(=O)N[C@H](C(=O)N[C@H](C(=O)N[C@@H](Cc1ccccc1)C(=O)N[C@@H](CCCNC(=N)N)C(=O)N[C@@H](CC(=O)O)C(=O)N[C@@H](CO)C(=O)N[C@@H](CCC(=O)O)C(=O)N[C@H](CCCCN)C(=O)N[C@@H](CCCNC(=N)N)C(=O)N[C@@H](CCCNC(=N)N)C(=O)N[C@@H](CO)C(=O)N[C@@H](C)C(=O)N[C@@H](CC(=O)O)C(=O)N[C@H](C(=O)N[C@@H](Cc1ccccc1)C(=O)N[C@H](C(N)=O)[C@@H](C)CC)[C@@H](C)CC)C(C)C)[C@@H](C)O` [Compound 36] (Palmitoyl-TVFRDSE[dK]RRSADIFI-NH2), the percent intrinsic activity at 0.3 µM in data set [2] is 49%. For the molecule `CCCCCCCCCCCCCCCC(=O)N[C@H](C(=O)N[C@@H](Cc1ccccc1)C(=O)N[C@@H](Cc1ccccc1)C(=O)N[C@@H](CCCNC(=N)N)C(=O)N[C@@H](CO)C(=O)N[C@@H](CO)C(=O)N[C@@H](CCC(=O)O)C(=O)N[C@H](CCCCN)C(=O)N[C@@H](CCCNC(=N)N)C(=O)N[C@@H](CCCNC(=N)N)C(=O)N[C@@H](CO)C(=O)N[C@@H](C)C(=O)N[C@@H](CC(=O)O)C(=O)N[C@H](C(=O)N[C@@H](Cc1ccccc1)C(=O)N[C@H](C(N)=O)[C@@H](C)CC)[C@@H](C)CC)[C@@H](C)O` [Compound 2] (Palmitoyl-TFFRSSE[dK]RRSADIFI-NH2), the percent intrinsic activity at 0.3 µM in data set [2] turned out to be 59%. `CCCCCCCCCCCCCCCC(=O)N[C@H](C(=O)N[C@H](C(=O)N[C@@H](Cc1ccccc1)C(=O)N[C@@H](Cc1c[nH]cn1)C(=O)N[C@@H](CO)C(=O)N[C@@H](CO)C(=O)N[C@@H](CCC(=O)O)C(=O)N[C@H](CCCCN)C(=O)N[C@@H](CCCNC(=N)N)C(=O)N[C@@H](CCCNC(=N)N)C(=O)N[C@@H](CO)C(=O)N[C@@H](C)C(=O)N[C@@H](CC(=O)O)C(=O)N[C@H](C(=O)N[C@@H](Cc1ccccc1)C(=O)N[C@H](C(N)=O)[C@@H](C)CC)[C@@H](C)CC)C(C)C)[C@@H](C)O` [Compound 10] (Palmitoyl-TVFHSSE[dK]RRSADIFI-NH2): the percent intrinsic activity at 0.3 µM in data set [2] came to 55%.
